Where a SMILES comes first, the peptide text is derived from it. [ ]: non-standard residue; d: D form. ξ: configuration not given here. ξαMeBip(2'-Et,4'-OMe) = CCc1cc(OC)ccc1-c1ccc(CC(C)(N)C(=O)O)cc1; ξBip(2'-Et-4'-OMe) = CCc1cc(OC)ccc1-c1ccc(CC(N)C(=O)O)cc1; ξαMePhe(2,6-F2) = CC(N)(Cc1c(F)cccc1F)C(=O)O; ξαMe(hhPhe) = CC(N)(CCCc1ccccc1)C(=O)O; ξαMePhe(2-F) = CC(N)(Cc1ccccc1F)C(=O)O; ξhhPhe = NC(CCCc1ccccc1)C(=O)O; ξαMeD = CC(N)(CC(=O)O)C(=O)O; ξαMeP = CC1(C(=O)O)CCCN1; Ac5c = NC1(C(=O)O)CCCC1; ξαMeS = CC(N)(CO)C(=O)O; Aib = CC(C)(N)C(=O)O
Tested on: RIN5F (Rat Insulinoma) cells
Test: In vitro glucose-dependent insulin secretion (RIN5F cell assay)
Format: cell-based
Details: 16.7-mM glucose load, n = 3, mean ± S.D.
Description: RIN5F (Rat Insulinoma) cells were cultured in RPMI 1640 medium supplemented with sodium pyruvate (1 mM) HEPES and Glucose (4.5 g/L) in a humidified incubator (5% CO2), at 37° C. After trypsinization, RIN5F cells were seeded at a concentration of 0.2×10^6 cells per well, in 12 well plates. The cells were grown overnight to 80% confluence and insulin secretion experiments were performed as follows (Montrose-Rafizadeh C., et al., Mol. Cell. Endo. 1997, 130, 109.; Wang, X., et al., Endocrinology 2001, 5, 1820).
The cells were washed once with PBS solution followed by 40 min. incubation in fresh Krebs-Ringer Balanced Buffer containing NaCl (115 mmol/L), KCl (4.7 mmol/L), CaCl2 (1.28 mmol/L), MgSO4.7H2O (1.2 mmol/L), KH2PO4 (1.2 mmol/L), NaHCO3 (10 mmol/L) and HEPES (25 mmol/L), containing Glucose (1.1 mM) and B.S.A (0.5%), pH 7.4. The buffer was replaced after 40 min. and the cells were incubated (37° C.) with the test peptidomimetics, at different concentration, for 30 min., both in the presence (16.7 mM) and absence (0 mM) of glucose load. The supernatant was collected and the insulin amount was measured by ultra sensitive Rat insulin ELISA kit (Crystal Chem, IL). The protein was estimated in the supernatant using Bicinchoninic Acid kit, according to the manufacturer's protocol (Sigma Aldrich, MO). The total insulin content obtained in Pico-gram (pg) was divided with the total protein (μg) in order to normalize for differences in cell density between wells.

Compound | Insulin secretion (0.1 nM test compd.) [pg/µg/h] | Insulin secretion (1 nM test compd.) [pg/µg/h] | Insulin secretion (10 nM test compd.) [pg/µg/h]
CCc1cc(OC)ccc1-c1ccc(CC(C)(NC(=O)C(C)(CC(=O)O)NC(=O)[C@H](CO)NC(=O)[C@@H](NC(=O)C(C)(Cc2ccccc2F)NC(=O)[C@@H](NC(=O)CNC(=O)[C@H](CCC(N)=O)NC(=O)[C@H](C)NC(=O)[C@H](Cc2c[nH]cn2)NC(=O)[C@@H](N)C(C)C)[C@@H](C)O)[C@@H](C)O)C(=O)NC(CCCc2ccccc2)C(N)=O)cc1 (stereo partly drawn) [compound 66] (H-VHAQGT[ξαMePhe(2-F)]TS[ξαMeD][ξαMeBip(2'-Et,4'-OMe)][ξhhPhe]-NH2) | 16.5 ± 0.12 | 22.7 ± 0.17 | 36.5 ± 0.05
CCc1cc(OC)ccc1-c1ccc(CC(C)(NC(=O)C(C)(CC(=O)O)NC(=O)[C@H](CO)NC(=O)[C@@H](NC(=O)C(C)(Cc2ccccc2F)NC(=O)[C@@H](NC(=O)CNC(=O)[C@H](CCC(=O)O)NC(=O)C(C)(C)NC(=O)[C@H](Cc2c[nH]cn2)NC(=O)[C@@H](N)C(C)C)[C@@H](C)O)[C@@H](C)O)C(=O)NC(CCCc2ccccc2)C(N)=O)cc1 (stereo partly drawn) [compound 71] (H-VH[Aib]EGT[ξαMePhe(2-F)]TS[ξαMeD][ξαMeBip(2'-Et,4'-OMe)][ξhhPhe]-NH2) | 15.6 ± 0.30 | 21.8 ± 0.11 | 35.6 ± 0.20
CCc1cc(OC)ccc1-c1ccc(CC(C)(NC(=O)C(C)(CC(=O)O)NC(=O)[C@H](CO)NC(=O)[C@@H](NC(=O)C(C)(Cc2c(F)cccc2F)NC(=O)[C@@H](NC(=O)CNC(=O)[C@H](CCC(=O)O)NC(=O)[C@H](C)NC(=O)[C@H](Cc2c[nH]cn2)NC(=O)[C@@H](N)C(C)C)[C@@H](C)O)[C@@H](C)O)C(=O)NC(CCCc2ccccc2)C(N)=O)cc1 (stereo partly drawn) [compound 78] (H-VHAEGT[ξαMePhe(2,6-F2)]TS[ξαMeD][ξαMeBip(2'-Et,4'-OMe)][ξhhPhe]-NH2) | 16.3 ± 0.15 | 22.4 ± 0.21 | 36.2 ± 0.11
CCc1cc(OC)ccc1-c1ccc(CC(NC(=O)[C@H](CC(=O)O)NC(=O)[C@H](CO)NC(=O)[C@@H](NC(=O)[C@H](Cc2ccccc2)NC(=O)[C@@H](NC(=O)CNC(=O)[C@H](CCC(N)=O)NC(=O)C2(NC(=O)[C@H](Cc3c[nH]cn3)NC(=O)[C@@H](N)C(C)C)CCCC2)[C@@H](C)O)[C@@H](C)O)C(=O)NC(C)(CCCc2ccccc2)C(N)=O)cc1 (stereo partly drawn) [compound 85] (H-VH[Ac5c]QGTFTSD[ξBip(2'-Et-4'-OMe)][ξαMe(hhPhe)]-NH2) | 12.1 ± 0.52 | 14.1 ± 0.16 | 28.0 ± 0.36
CCc1cc(OC)ccc1-c1ccc(CC(NC(=O)[C@H](CC(=O)O)NC(=O)[C@H](CO)NC(=O)[C@@H](NC(=O)C(C)(Cc2c(F)cccc2F)NC(=O)[C@@H](NC(=O)CNC(=O)[C@H](CCC(=O)O)NC(=O)[C@H](CO)NC(=O)[C@H](Cc2c[nH]cn2)NC(=O)[C@@H](N)C(C)C)[C@@H](C)O)[C@@H](C)O)C(=O)NC(C)(CCCc2ccccc2)C(N)=O)cc1 (stereo partly drawn) [compound 103] (H-VHSEGT[ξαMePhe(2,6-F2)]TSD[ξBip(2'-Et-4'-OMe)][ξαMe(hhPhe)]-NH2) | 12.3 ± 0.33 | 14.1 ± 0.36 | 28.0 ± 0.16
CCc1cc(OC)ccc1-c1ccc(CC(NC(=O)C(C)(CC(=O)O)NC(=O)C(C)(CO)NC(=O)[C@@H](NC(=O)C(C)(Cc2ccccc2F)NC(=O)[C@@H](NC(=O)CNC(=O)[C@H](CCC(=O)O)NC(=O)[C@H](CO)NC(=O)[C@H](Cc2c[nH]cn2)NC(=O)[C@@H](N)C(C)C)[C@@H](C)O)[C@@H](C)O)C(=O)NC(C)(CCCc2ccccc2)C(N)=O)cc1 (stereo partly drawn) [compound 119] (H-VHSEGT[ξαMePhe(2-F)]T[ξαMeS][ξαMeD][ξBip(2'-Et-4'-OMe)][ξαMe(hhPhe)]-NH2) | 12.4 ± 0.22 | 15.2 ± 0.32 | 29.6 ± 0.50
CCc1cc(OC)ccc1-c1ccc(CC(NC(=O)C(C)(CC(=O)O)NC(=O)C(C)(CO)NC(=O)[C@@H](NC(=O)C(C)(Cc2c(F)cccc2F)NC(=O)[C@@H](NC(=O)CNC(=O)[C@H](CCC(N)=O)NC(=O)C2(C)CCCN2C(=O)[C@H](Cc2c[nH]cn2)NC(=O)[C@@H](N)C(C)C)[C@@H](C)O)[C@@H](C)O)C(=O)NC(C)(CCCc2ccccc2)C(N)=O)cc1 (stereo partly drawn) [compound 126] (H-VH[ξαMeP]QGT[ξαMePhe(2,6-F2)]T[ξαMeS][ξαMeD][ξBip(2'-Et-4'-OMe)][ξαMe(hhPhe)]-NH2) | 16.6 ± 0.41 | 22.9 ± 0.32 | 36.6 ± 0.19
CCc1cc(OC)ccc1-c1ccc(CC(NC(=O)C(C)(CC(=O)O)NC(=O)C(C)(CO)NC(=O)[C@@H](NC(=O)C(C)(Cc2c(F)cccc2F)NC(=O)[C@@H](NC(=O)CNC(=O)[C@H](CCC(=O)O)NC(=O)C2(C)CCCN2C(=O)[C@H](Cc2c[nH]cn2)NC(=O)[C@@H](N)C(C)C)[C@@H](C)O)[C@@H](C)O)C(=O)NC(C)(CCCc2ccccc2)C(N)=O)cc1 (stereo partly drawn) [compound 130] (H-VH[ξαMeP]EGT[ξαMePhe(2,6-F2)]T[ξαMeS][ξαMeD][ξBip(2'-Et-4'-OMe)][ξαMe(hhPhe)]-NH2) | 15.6 ± 0.33 | 21.8 ± 0.16 | 35.6 ± 0.26
CCc1cc(OC)ccc1-c1ccc(CC(C)(NC(=O)[C@H](CC(=O)O)NC(=O)C(C)(CO)NC(=O)[C@@H](NC(=O)[C@H](Cc2ccccc2)NC(=O)[C@@H](NC(=O)CNC(=O)[C@H](CCC(N)=O)NC(=O)C2(C)CCCN2C(=O)[C@H](Cc2c[nH]cn2)NC(=O)[C@@H](N)C(C)C)[C@@H](C)O)[C@@H](C)O)C(=O)NC(C)(CCCc2ccccc2)C(N)=O)cc1 (stereo partly drawn) [compound 160] (H-VH[ξαMeP]QGTFT[ξαMeS]D[ξαMeBip(2'-Et,4'-OMe)][ξαMe(hhPhe)]-NH2) | 16.8 ± 0.20 | 22.7 ± 0.29 | 36.6 ± 0.31
CCc1cc(OC)ccc1-c1ccc(CC(C)(NC(=O)[C@H](CC(=O)O)NC(=O)C(C)(CO)NC(=O)[C@@H](NC(=O)C(C)(Cc2ccccc2F)NC(=O)[C@@H](NC(=O)CNC(=O)[C@H](CCC(N)=O)NC(=O)C2(C)CCCN2C(=O)[C@H](Cc2c[nH]cn2)NC(=O)[C@@H](N)C(C)C)[C@@H](C)O)[C@@H](C)O)C(=O)NC(C)(CCCc2ccccc2)C(N)=O)cc1 (stereo partly drawn) [compound 168] (H-VH[ξαMeP]QGT[ξαMePhe(2-F)]T[ξαMeS]D[ξαMeBip(2'-Et,4'-OMe)][ξαMe(hhPhe)]-NH2) | 11.9 ± 0.17 | 14.2 ± 0.13 | 27.6 ± 0.16
